Source: patent US20070016978A1, “PLANTS HAVING AN ENHANCED RESISTANCE TO NECROTROPHIC PATHOGENS AND METHOD OF MAKING SAME” (priority 2005, published 2007)

What was measured:
[1] = tested on: C. higginsianum; test: Anthracnose lesion development on Arabidopsis leaves infiltrated with G3P before infection; assay type: in vivo; details: infiltration of G3P into Arabidopsis leaves prior to infection
Procedure: (§1) Several lines of evidence point to G3P levels as being of primary importance. […] Secondly, the gli1 and gly1 plants, with lower levels of G3P, are slightly more susceptible to C. higginsianum.
Inoculation with Peronospora parasitica Emco5 is conducted as described in Kachroo et al., 2001. Inoculation with Colletotrichum higginssianum is carried out by spraying the spores at a concentration of […] and spot inoculating at a concentration of 104-105/ml. After inoculation, the plants are covered with a transparent plastic dome and kept in a growth chamber at 22° C., 65% relative humidity and 14 hour photoperiod. Infections are evaluated every day and scored for disease at 4-6 dpi. Inoculation with Pseudomonas syringae is conducted as described in Shah et al., 2001.

[2] = tested on: C. higginsianum; test: Growth of C. higginsianum in liquid Fries minimal medium; assay type: cell-based, Colletotrichum higginsianum; details: G3P added in minimal medium containing a preferred carbon source like sucrose or glycerol; 10 mM G3P, 5 days, 30° C.
From the text: as §1

[3] = tested on: PDF1.2 gene; test: PDF1.2 gene expression in response to JA (RNA gel blot); assay type: in vivo, Arabidopsis; details: ssi2 fad7 and ssi2 fad7 fad8 plants, 50 μM JA, 48 h post treatment
Procedure: Small-scale extraction of RNA from one or two leaves is performed in the TRIzol reagent (Invitrogen, Gaithersburg, Md.) following the manufacturer's instructions. Northern blot analysis and synthesis of random primed probes for PR-1, PR-2 and PDF1.2 are carried out as described in Kachroo et al., 2001.
(§2) JA treatments are carried out as described in Kachroo et al., 2001.
FIGS. 5(A)-5(I) illustrate glycerol-mediated effects on mutants impaired in various fatty add desaturation (fad) steps and double mutant analysis of ssi2 in different fad backgrounds. […] RNA gel blot analysis was performed on […] of total RNA extracted from 4-week-old soil-grown plants. Ethidium bromide staining of rRNA was used as a loading control. […] The values presented are averages of three replicates. FIG. 5(D) is a plot showing glycerol-induced changes in the 18:1 levels in leaf tissue of four-week-old plants. The ssi2 gly1 and ssi2 act1 plants were used as controls. […] FIG. 5(F) comprises a series of microscopies of trypan blue-stained leaves from ssi2 and various ssi2 fad double- and triple-mutant plants. FIG. 5(G) illustrates expression of the PR-1 and PR-2 genes in wt, ssi2, and various ssi2 fad double and triple mutant plants. […] Samples were harvested 48 h post treatment and analyzed by RNA gel blot analysis performed on 7 μg of total RNA. […]

[4] = tested on: Peronospora parasitica biotype Emco5; details: glycerol-treated npr1 plants, glycerol 72 h prior to inoculation
[5] = tested on: PR-1 gene; details: exogenous application on wt plants; cited from earlier work
[6] = tested on: 18:1 levels; test: Leaf 18:1 content after glycerol application (GC); assay type: in vivo, Arabidopsis; details: wt and plants impaired in the SA signaling pathway, three days after glycerol application
Procedure: (§3) SA and SA glucoside (SAG) are extracted and measured from 0.2-0.3 g of fresh weight leaf tissue, as described in Chandra-Shekara et al., 2004. FA analysis is carried out as described in Dahmer et al., 1989; and He et al., 2002. Lipids are extracted as described in Welti et al., 2002. Lipid profiles and acyl group identification are carried out using an automated electrospray ionization-tandem mass spectrometry facility available at the Kansas Lipidomics Center.
as §2
(§4) Ethidium bromide staining of rRNA used as a loading control. FIG. 3(D) is a graph showing growth of P. parasitica biotype Emco5 on various plant genotypes listed at the left. The Landsberg (Ler) ecotype used as the resistant control. […] The shade of each box indicates the severity of infection, based on the number of sporangiophores per cotyledon (see key at the right). FIG. 3(E) is a plot showing glycerol-induced changes in the 18:1 levels in leaf tissue of 4-week-old plants.

[7] = tested on: SA and SAG levels; test: Endogenous SA and SAG levels in leaves of glycerol-treated plants; assay type: in vivo, Arabidopsis; details: for induction in SA levels / induction in the SAG levels: glycerol- versus water-treated, 50 mM glycerol
Procedure: as §3, §2, §4

Compound: O=P(O)(O)OCC(O)CO (centres unmarked) [G3P, glycerol-3-phosphate]
- necrosis triggered by the fungus at the site of entry [1]: significantly reduced necrosis
- inhibition of fungal growth [2]: ~3 fold

Compound: CC/C=C\C[C@H]1C(=O)CC[C@@H]1CC(=O)O [JA, jasmonic acid]
- PDF1.2 expression [3]: basal level expression of PDF1.2

Compound: OCC(O)CO [glycerol]
- reduction in the number of susceptible plants [4]: about 60%
- PR-1 gene expression [5]: induction of PR-1 gene expression
- leaf 18:1 levels [6]: drastic reduction in their 18:1 levels
- induction in SA levels ([7]; Columbia-O (Col-O) plants): 13 fold
- induction in the SAG levels ([7]; Columbia-O (Col-O) plants): 10 fold
- induction in SA levels ([7]; Nossen (No) plants): 10 fold
- induction in the SAG levels ([7]; Nossen (No) plants): 8 fold
- SA levels upon glycerol treatment, lower than in wt plants ([7]; fad7 and fad7 fad8 plants versus glycerol-treated wt): 3 fold
